Assay results reported in patent US20240294542A1, “NLRP3 INFLAMMASOME INHIBITOR AND APPLICATION THEREOF” (TransThera Sciences (Nanjing), Inc., priority 2021, published 2024).

Tested on: NLRP3 inflammasomes
Experiment: Inhibitory activity against NLRP3 inflammasome in THP-1 cells (LPS/nigericin stimulation, IL-1β ELISA)
Assay type: cell-based
Details: PMA-differentiated THP-1 cells; LPS 500 ng/mL 3 h, compound 1 h, nigericin 10 μg/mL 30 min; human IL-1β in supernatant by Elisa; read-out: IC50 (nM), inhibitory activities against NLRP3 in THP-1 cells
Procedure: Test Samples: The compounds of the present invention prepared according to exemplary methods.
THP-1 is Immortalized Human Macrophage Cell Line
• Test instrument: microplate reader (made from PE)
• 1. […] Culture plate coating: 100 μL polylysine solution was added into a 96-well cell culture plate, and the reaction was carried out at 37° C. for 30 min. The solution was discarded, and PBS was washed twice for later use. • 3. […] The resulting mixture was uniformly mixed, and finally diluted by 1:1000 times, and the cells were placed in a carbon dioxide cell incubator at 37° C. and cultured for 1 h. • c. Nigericin was added to each well at a final concentration of 10 μg/mL, and the plate was placed in a carbon dioxide cell incubator at 37° C. and cultured for 30 min. • d. The media in wells were transferred to a new culture plate, and then the plate was centrifuged at 3000 rpm for 5 min. Then the supernatant was transferred to a new 96-well plate. • e. The collected cell culture supernatant samples were tested for the content of human IL-1β by using a commercial Elisa kit, as specified in the instructions.

Compound	IC50 [nM]
Cc1ccc(-c2nnc(N[C@@H]3CCCN(C)C3)c3cc(Cl)ccc23)c(O)c1 [Compound 12, (R)-2-(6-chloro-4-((1-methylpiperidin-3-yl)amino)phthalazin-1-yl)-5-methylphenol]	4
C[C@]1(O)C[C@@H](Nc2nnc(-c3ccc(C#N)cc3O)c3ccccc23)C1 [Compound 116, 3-hydroxy-4-(4-(((cis)-3-hydroxy-3-methylcyclobutyl)amino)phthalazin-1-yl)benzonitrile]	21
CN1CCC[C@@H](Nc2nnc(-c3ccc(C#N)cc3O)c3c2CCCC3)C1 [Compound 2a, (R)-3-hydroxy-4-(4-((1-methylpiperidin-3-yl)amino)-5,6,7,8-tetrahydrophthalazin-1-yl)benzonitrile]	3
N#Cc1ccc(-c2nnc(N[C@@H]3CCCOC3)c3ccccc23)c(O)c1 [Compound 112, (R)-3-hydroxy-4-(4-((tetrahydro-2H-pyran-3-yl)amino)phthalazin-1-yl)benzonitrile]	16
Cc1cc(C#N)ccc1-c1nnc(N[C@@H]2CCCN(C)C2)c2ccccc12 [Compound 118, (R)-3-methyl-4-(4-((1-methylpiperidin-3-yl)amino)phthalazin-1-yl)benzonitrile]	23
N#Cc1ccc(-c2nnc(N[C@@H]3CCCN(C4CCOCC4)C3)c3ccccc23)c(O)c1 [Compound 124, (R)-3-hydroxy-4-(4-((1-(tetrahydro-2H-pyran-4-yl)piperidin-3-yl)amino)phthalazin-1-yl)benzonitrile]	5
Cc1ccc(-c2nnc(N[C@@H]3CCCN(C)C3)c3cc(C(F)(F)F)ccc23)c(O)c1 [Compound 24, (R)-5-methyl-2-(4-((1-methylpiperidin-3-yl)amino)-6-(trifluoromethyl)phthalazin-1-yl)phenol]	14
CN1CCC[C@@H](Nc2nnc(-c3ccc(F)cc3O)c3c2CCCC3)C1 [Compound 24a, (R)-5-fluoro-2-(4-((1-methylpiperidin-3-yl)amino)-5,6,7,8-tetrahydrophthalazin-1-yl)phenol]	1
CN1C[C@H](F)C[C@@H](Nc2nnc(-c3ccc(C#N)cc3O)c3ccccc23)C1 [Compound 123, 4-(4-(((3R,5R)-5-fluoro-1-methylpiperidin-3-yl)amino)phthalazin-1-yl)-3-hydroxybenzonitrile]	6
N#Cc1ccc(-c2nnc(N[C@@H]3CCCN(C4CC4)C3)c3c2CCCC3)c(O)c1 [Compound 21a, (R)-4-(4-((1-cyclopropylpiperidin-3-yl)amino)-5,6,7,8-tetrahydrophthalazin-1-yl)-3-hydroxybenzonitrile]	14
CC(C)(O)CN1CCC[C@@H](Nc2nnc(-c3ccc(C#N)cc3O)c3ccccc23)C1 [Compound 126]	5
Cc1ccc(-c2nnc(N[C@@H]3CCCN(C)C3)c3cc(F)ccc23)c(O)c1 [Compound 8, (R)-2-(6-fluoro-4-((1-methylpiperidin-3-yl)amino)phthalazin-1-yl)-5-methylphenol]	3
Cc1ccc(-c2nnc(N[C@@H]3CCCN(C)C3)c3cccc(F)c23)c(O)c1 [Compound 6, (R)-2-(8-fluoro-4-((1-methylpiperidin-3-yl)amino)phthalazin-1-yl)-5-methylphenol]	11
Cc1ccc(-c2nnc(N[C@@H]3CCCN(C)C3)c3c2CCCCC3)c(O)c1 [Compound 26a, (R)-5-methyl-2-(4-((1-methylpiperidin-3-yl)amino)-6,7,8,9-tetrahydro-5H-cyclohepta[d]pyridazin-1-yl)phenol]	4
CN1CCC[C@@H](Nc2nnc(-c3ccc(C4CC4)cc3O)c3ccc(C#N)cc23)C1 [Compound 89, (R)-1-(4-cyclopropyl-2-hydroxyphenyl)-4-((1-methylpiperidin-3-yl)amino)phthalazine-6-carbonitrile]	7
C[C@]1(O)C[C@@H](Nc2nnc(-c3ccc(C(F)(F)F)cc3O)c3ccccc23)C1 [Compound 129, 2-(4-(((cis)-3-hydroxy-3-methylcyclobutyl)amino)phthalazin-1-yl)-5-(trifluoromethyl)phenol]	4
Cc1ccc(-c2nnc(N[C@@H]3CCCN(C)C3)c3ccc(C)cc23)c(O)c1 [Compound 3, (R)-5-methyl-2-(7-methyl-4-((1-methylpiperidin-3-yl)amino)phthalazin-1-yl)phenol]	24
Cc1ccc(-c2nnc(N[C@@H]3CCCN(C)C3)c3c(C)cccc23)c(O)c1 [Compound 5, (R)-5-methyl-2-(5-methyl-4-((1-methylpiperidin-3-yl)amino)phthalazin-1-yl)phenol]	14
Cc1ccc(-c2nnc(N[C@@H]3CCCN(C)C3)c3c2C2CCC3CC2)c(O)c1 [Compound 6a, (R)-5-methyl-2-(4-((1-methylpiperidin-3-yl)amino)-5,6,7,8-tetrahydro-5,8-ethanophthalazin-1-yl)phenol]	1
Cc1ccc(-c2nnc(N[C@@H]3CCCN(C)C3)c3sccc23)c(O)c1 [Compound 70, (R)-5-methyl-2-(7-((1-methylpiperidin-3-yl)amino)thieno[2,3-d]pyridazin-4-yl)phenol]	1
